Experimental data as given in BindingDB's records for doi:10.1016/S0960-894X(00)80511-9 (1992).
pIC50: −log10 of the molar value.

Molecular target: Seed linoleate 13S-lipoxygenase-1 (Glycine max) (UniProt P08170)
Assay: Inhibitory activity against soybean 15-lipoxygenase was evaluated

Seed linoleate 13S-lipoxygenase-1 (Glycine max), sequence (P08170 whole entry, looked up): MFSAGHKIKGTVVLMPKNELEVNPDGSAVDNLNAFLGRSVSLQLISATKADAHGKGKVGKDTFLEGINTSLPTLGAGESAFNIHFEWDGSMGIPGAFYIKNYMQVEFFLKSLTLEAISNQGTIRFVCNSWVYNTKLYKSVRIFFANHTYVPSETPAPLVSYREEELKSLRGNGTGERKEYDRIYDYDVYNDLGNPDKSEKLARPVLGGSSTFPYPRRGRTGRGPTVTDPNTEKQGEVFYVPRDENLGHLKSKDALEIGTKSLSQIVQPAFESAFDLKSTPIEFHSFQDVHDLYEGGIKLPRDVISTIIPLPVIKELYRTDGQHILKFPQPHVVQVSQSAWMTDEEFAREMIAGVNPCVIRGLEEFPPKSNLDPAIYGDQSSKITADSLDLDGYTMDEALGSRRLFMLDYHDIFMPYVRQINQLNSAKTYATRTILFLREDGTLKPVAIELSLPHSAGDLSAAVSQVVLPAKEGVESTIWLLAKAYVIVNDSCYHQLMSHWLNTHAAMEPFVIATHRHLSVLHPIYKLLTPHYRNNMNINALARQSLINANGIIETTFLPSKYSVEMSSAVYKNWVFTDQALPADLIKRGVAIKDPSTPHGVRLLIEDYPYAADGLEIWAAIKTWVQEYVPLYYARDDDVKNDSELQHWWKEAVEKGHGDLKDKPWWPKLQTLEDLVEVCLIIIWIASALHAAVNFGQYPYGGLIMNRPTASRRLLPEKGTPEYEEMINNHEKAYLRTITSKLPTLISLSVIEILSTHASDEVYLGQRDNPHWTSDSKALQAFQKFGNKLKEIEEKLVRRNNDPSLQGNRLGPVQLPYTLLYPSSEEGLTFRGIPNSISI

pIC50: 3.67
SMILES: NC1=NN(c2cccc(C(F)(F)F)c2)CC1 [1-(3-Trifluoromethyl-phenyl)-4,5-dihydro-1H-pyrazol-3-ylamine]
